From patent US20140249490A1, “Methods for Prevention and/or Treatment of Capsular Contracture” (J&E SOLUTIONS, LLC, priority 2013, published 2014)

Test system: capsular contracture
Experiment: Clinical cases: topical treatment of breast capsular contracture, Baker grading
Format: in vivo, human
Conditions: Patient #1; bilateral Grade 3 capsular contracture, after first revision; given together with massage
Excerpt: Wash and dry the affected area (that is, the skin surrounding the implant or the skin over the capsular contracture) prior to use. Apply the composition daily (use sparingly) with vigorous massage to affected area. If necessary, exert compression or pressure when massaging to break up existing capsule. Enhanced absorption is obtained with application of the composition following a hot shower. Occlusive dressing (hydrogel), or tight clothing (sports bras), will also enhance the result. Continued daily use will yield optimal results. […] Optimal results are best maintained with daily continued application. One particularly useful embodiment of the invention involves the use of the topical compositions for the treatment/prevention of capsular contracture in breast surgery (e.g., breast implants). There are four grades of breast capsular contracture—Baker grades I through IV. The Baker grading is as follows: Grade 1—the breast is normally soft and looks natural Grade II—the breast is a little firm but looks normal Grade III—the breast is firm and looks abnormal Grade IV—the breast is hard, painful, and looks abnormal. of developed or is at risk of developing capsular contracture a topical composition.

In the case of `COc1ccc2cc([C@H](C)C(=O)O)ccc2c1` [Aleve, naproxen sodium], the “response of capsular contracture to treatment” value is reported as “without result”.
